Experimental data taken from patent publication US20240374628A1 (Whispergenics. Inc., priority 2021, published 2024).

Experiments:
[1] = system: BIRC5 expression; test: Cardiac glycosides that inhibit BIRC5 expression in colorectal cancer; assay type: cell-based
[2] = system: Caco2; test: CellTiter-Glo cell viability, Caco2; assay type: cell-based, human; settings: 48 h, dose curve 625 μM-40000 μM, FIG. 3
Description: (§1) Cell lines: Human colon cancer cell lines CCD-18Co and Caco2 (American Type Culture Collection [ATCC], Bethesda, MD) were maintained in Eagle's Minimum Essential Medium (Thermo Fisher Scientific, MA) supplemented with 100,000 U/L of penicillin, 100,000 μg/L of streptomycin, and 20% fetal bovine serum (FBS). HT29 (American Type Culture Collection [ATCC], Bethesda, MD) was maintained in McCoy's 5a Medium Modified (Thermo Fisher Scientific, MA) supplemented with 100,000 U/L of penicillin, 100,000 μg/L of streptomycin, and 10% fetal bovine serum (FBS). The following cells were also tested: MDA 231 Breast Cancer Cells, U87 Glioblastoma Cells, U251 Glioblastoma Cells and Dul45 Prostate Cancer Cells. All cells were maintained in Eagles Medium as described above.
(§2) The cells were subjected to cell viability assays using The CellTiter-Glo luminescent cell viability kit (Promega, catalog number: G7570). luminescence was measured using microplate luminometer (luminoskan™ ascent, Thermo-Fisher Scientific, MA). Background luminescence was measured in medium without cells and subtracted from experimental values.

[3] = system: human colon cancer cell lines (CCD-18Co, Caco2, HT29); test: CellTiter-Glo cell viability, three human colon cancer cell lines; assay type: cell-based; settings: dose-response curves, 48 h, FIGS. 1-3
Description: as §1, with “The following cells were also tested: MDA 231 Breast Cancer Cells, U87 Glioblastoma Cells, U251 Glioblastoma Cells and Dul45 Prostate Cancer Cells.” left out
as §2

[4] = system: HT29; test: CellTiter-Glo cell viability, HT29; assay type: cell-based, human; settings: 48 h, dose curve 12.5 nM-800 nM, FIG. 1
Description: as §1, §2

Compound | inhibition of BIRC5 expression [1] | sensitivity of cell viability [2] | cell viability, single drug alone [3] | sensitivity of cell viability [4]
C[C@@H]1O[C@@H](O[C@H]2C[C@@H](O)[C@]3(CO)[C@H]4[C@H](O)C[C@]5(C)[C@@H](C6=CC(=O)OC6)CC[C@]5(O)[C@@H]4CC[C@]3(O)C2)[C@H](O)[C@H](O)[C@H]1O [Ouabain] | inhibit BIRC5 expression |  |  | 
CN(C)C(=N)N=C(N)N [Metformin] |  | sensitive | reduced cell viability to varying degrees | 
C[C@H]1O[C@@H](O[C@H]2[C@@H](O)C[C@H](O[C@H]3[C@@H](O)C[C@H](O[C@H]4CC[C@@]5(C)[C@H](CC[C@@H]6[C@@H]5C[C@@H](O)[C@]5(C)[C@@H](C7=CC(=O)OC7)CC[C@]65O)C4)O[C@@H]3C)O[C@@H]2C)C[C@H](O)[C@@H]1O [Digoxin] | inhibit BIRC5 expression |  | reduced cell viability to varying degrees | very sensitive
C[C@]12CC[C@H](O)C[C@H]1CC[C@@H]1[C@@H]2CC[C@]2(C)[C@@H](C3=CC(=O)OC3)CC[C@]12O [Digitoxigenin] | inhibit BIRC5 expression |  |  | 
CC(=O)O[C@H]1C[C@H](O[C@H]2[C@@H](O)C[C@H](O[C@H]3[C@@H](O)C[C@H](O[C@H]4CC[C@@]5(C)[C@H](CC[C@@H]6[C@@H]5C[C@@H](O)[C@]5(C)[C@@H](C7=CC(=O)OC7)CC[C@]65O)C4)O[C@@H]3C)O[C@@H]2C)O[C@H](C)[C@H]1O[C@@H]1O[C@H](CO)[C@@H](O)[C@H](O)[C@H]1O [Lanatoside C] | inhibit BIRC5 expression |  |  | 
C[C@]12CC[C@H](O)C[C@H]1CC[C@@H]1[C@@H]2CC[C@]2(C)[C@@H](c3ccc(=O)oc3)CC[C@]12O [bufalin] | inhibit BIRC5 expression |  |  | 
